According to patent publication US8609413B2, “Neurons, astrocytes and oligodendrocytes differentiated from a mammalian pluripotent or neural stem cells exposed to a pyridine deriviative” (Research Development Foundation, priority 2007, dated 2013):

What was measured:
HS401 human ES cells = experiment: Differentiation protocol 2 in HS401 cell line; type: cell-based; conditions: 3 μM vs DMSO
Experimental: Two different protocols were used to induce neuronal differentiation of human ES cells. In the first protocol, human ES cells were mechanically dissociated into small aggregates and plated on laminin/polyornithine coated six-well plates. Cells were cultured 2 weeks in human SR medium (DMEM F-12 supplemented with 15% knockout serum (Gibco), non-essential amino acids, penicillin and streptomycin), followed by 4 weeks in N2 medium. Compounds were added throughout these first 6 weeks. Subsequently, cells were mechanically dissociated and replated on polyornithine/laminin-coated 6 well plates. Throughout the text, this first differentiation protocol will be referred to as “differentiation protocol 1”. The second differentiation protocol was derived from previously described differentiation conditions (Nat et al., 2007). In the second differentiation protocol, undifferentiated human ES cells were mechanically dissociated into small aggregates and cultured in suspension on low-attachment six-well plates. For the first 4 days, they were cultured in neuronal induction medium (DMEM F-12, N2 supplement, penicillin and streptomycin), which was changed to simple neuronal proliferation medium (DMEM F-12, N2 supplement, 20 ng/ml bFGF, penicillin and streptomycin) for 2 additional days. […]

CGR8 mouse ES cells = experiment: Secondary screening assay: neuronal differentiation of mouse ES cells, total neurite outgrowth; type: cell-based; conditions: 5 days with compound in SR medium, then 4 days N2 medium without compound; vs control cells
Experimental: To perform the secondary screening assay, neuronal differentiation of CGR8 cells was carried out in SR medium (DMEM high glucose supplemented with 15% KO serum (Gibco), non-essential amino acids, penicillin and streptomycin). Cells were plated at 10^5 cells per 10 cm cell culture dish and maintained is SR medium for 5 days with compounds found in the primary screen. Cells were subsequently dissociated and replated at 4×10^4 cells/cm^2 in N2 medium (DMEM high glucose, N2 supplement, 10 ng/ml basic fibroblast growth factor, penicillin and streptomycin) and cultured for four additional days without compound addition. Immunostaining quantification. Immunostaining and nuclear staining quantifications were performed using the MetaXpress software (Molecular devices). Total neurite outgrowth was quantified using the neurite outgrowth analysis module, and total cell numbers were quantified with the count nuclei analysis module. For further studies, 32 compounds were selected with high Fluc/Rluc ratio. A dose-response analysis of Fluc/Rluc ratio was performed in the same conditions as used for the primary screen, using concentrations ranging from 100 nM to 100 μM. […] The amounts of neurons were quantified by calculating total neurite outgrowth identified by β3-tubulin immunoreactivity using an automated imaging system (see Methods above).

Nc1ccc(/N=N/c2ccccc2)c(N)n1 [phenazopyridine]
morphology and dissociation observations in HS401 cell line (HS401 human ES cells): confirmed | total neurite outgrowth identified by β3-tubulin immunoreactivity (CGR8 mouse ES cells): increase of total neurite outgrowth as compared to control cells
